According to ChEMBL document CHEMBL1201862, “PubChem BioAssay data set” (2004):
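Protocol summary: plate cells (96-well), add compound at 5 concentrations, incubate 48 h, interpolate endpoints linearly. GI50 marks 50% less growth.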 The source made the active and inactive calls. No stated cut-off is given here; in the data, active = GI50 up to about 1.1 µM and inactive = higher.

Columns and labels:
Test in all cases: growth of human tumour cells (NCI), 48 h
ACHN = test system: ACHN
UACC-62 = test system: UACC-62
MDA-MB-231 = test system: MDA-MB-231
A498 = test system: A498
OVCAR-8 = test system: OVCAR-8
MDA-N = test system: MDA-N
NCI-H522 = test system: NCI-H522
COLO 205 = test system: COLO 205
LOX IMVI = test system: LOX IMVI
HT-29 = test system: HT-29
Malme-3M = test system: Malme-3M
NCI-H460 = test system: NCI-H460
EKVX = test system: EKVX
SF-268 = test system: SF-268
MCF7 = test system: MCF7
HCC 2998 = test system: HCC 2998
SNB-75 = test system: SNB-75
786-0 = test system: 786-0
SF-539 = test system: SF-539
A549 = test system: A549

Row | SMILES | GI50 (ACHN) | GI50 (UACC-62) | GI50 (MDA-MB-231) | GI50 (A498) | GI50 (OVCAR-8) | GI50 (MDA-N) | GI50 (NCI-H522) | GI50 (COLO 205) | GI50 (LOX IMVI) | GI50 (HT-29) | GI50 (Malme-3M) | GI50 (NCI-H460) | GI50 (EKVX) | GI50 (SF-268) | GI50 (MCF7) | GI50 (HCC 2998) | GI50 (SNB-75) | GI50 (786-0) | GI50 (SF-539) | GI50 (A549)
1 | C=C1[C@H](OC(=O)C(C)C)[C@@H](OC(C)=O)[C@@H](OC(C)=O)C(C)(C)[C@@H]2O[C@H]2[C@@H](C)C(=O)[C@@]2(OC(C)=O)C[C@@](C)(OC(C)=O)[C@H](OC(C)=O)[C@@H]2[C@H]1OC(C)=O | > 100 µM (inactive) | > 100 µM (inactive) | > 100 µM (inactive) | > 100 µM (inactive) | > 100 µM (inactive) | > 100 µM (inactive) | > 100 µM (inactive) | > 100 µM (inactive) | > 100 µM (inactive) | > 100 µM (inactive) | > 100 µM (inactive) | > 100 µM (inactive) | > 100 µM (inactive) | > 100 µM (inactive) | > 100 µM (inactive) | > 100 µM (inactive) | 0.69 µM (active) | > 100 µM (inactive) | > 100 µM (inactive) | > 100 µM (inactive)
2 | O=C(c1ccccc1)N1C(=S)N(c2ccccn2)C(=N/c2ccccc2)/C1=N\c1ccccc1 | 9.93 µM (inactive) | 11.2 µM (inactive) | 23.3 µM (inactive) | > 66.5 µM (inactive) | 8.28 µM (inactive) | 11.4 µM (inactive) | 2.16 µM (inactive) | 28.8 µM (inactive) | 12.4 µM (inactive) | 11.5 µM (inactive) | 20 µM (inactive) | 29.5 µM (inactive) | 24 µM (inactive) | 24.9 µM (inactive) | 60.8 µM (inactive) | > 93.5 µM (inactive) | 20.5 µM (inactive) | 16.7 µM (inactive) | 12.9 µM (inactive) | 27.5 µM (inactive)
